Reference: patent publication US7063946B2, “Methods, reagents, kits and apparatus for protein function analysis” (Meso Scale Technologies, LLC., priority 2001, dated 2006)

Legend:
EphB4 = target: T1, EphB4 (Mus musculus, UniProt P54761); experiment: Kinase inhibitor profiling, autophosphorylation; format: biochemical
T1 construct: specificity data for proteins generated from a library of eighteen full-length clones; host or cells: rabbit reticulocyte lysate, TnT coupled in vitro transcription/translation (cell-free)
T1 sequence (P54761 16-987): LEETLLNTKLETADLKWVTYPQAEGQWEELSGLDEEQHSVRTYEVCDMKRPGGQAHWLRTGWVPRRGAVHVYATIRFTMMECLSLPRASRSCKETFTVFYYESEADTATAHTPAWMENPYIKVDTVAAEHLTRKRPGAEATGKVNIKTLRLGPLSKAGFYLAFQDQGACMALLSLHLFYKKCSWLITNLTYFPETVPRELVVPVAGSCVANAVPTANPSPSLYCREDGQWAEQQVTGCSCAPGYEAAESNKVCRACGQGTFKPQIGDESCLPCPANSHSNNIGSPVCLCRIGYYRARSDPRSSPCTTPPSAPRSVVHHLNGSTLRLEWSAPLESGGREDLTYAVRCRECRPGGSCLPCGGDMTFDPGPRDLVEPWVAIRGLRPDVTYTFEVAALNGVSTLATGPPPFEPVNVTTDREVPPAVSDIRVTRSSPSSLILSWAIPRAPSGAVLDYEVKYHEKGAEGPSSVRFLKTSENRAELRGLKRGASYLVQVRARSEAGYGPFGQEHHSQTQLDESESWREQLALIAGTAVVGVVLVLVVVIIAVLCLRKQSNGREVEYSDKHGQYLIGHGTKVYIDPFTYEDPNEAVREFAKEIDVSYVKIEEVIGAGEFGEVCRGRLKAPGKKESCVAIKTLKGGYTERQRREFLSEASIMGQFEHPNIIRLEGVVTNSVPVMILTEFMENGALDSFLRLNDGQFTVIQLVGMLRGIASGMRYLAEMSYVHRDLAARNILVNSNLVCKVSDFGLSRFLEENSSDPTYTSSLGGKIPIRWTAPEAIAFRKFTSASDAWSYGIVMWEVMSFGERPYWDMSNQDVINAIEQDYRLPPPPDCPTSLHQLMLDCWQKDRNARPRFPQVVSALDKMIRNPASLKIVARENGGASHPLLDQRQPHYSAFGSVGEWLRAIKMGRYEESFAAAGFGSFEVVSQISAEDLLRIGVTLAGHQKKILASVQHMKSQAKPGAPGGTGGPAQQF
Experimental: (§1) Proteins were produced from DNA plasmids of Mock Luciferase, Promega, tyrosine kinase clone Spleen Tyrosine kinase (SYK, IMAGE ID# 3870426) and Eph receptor-A7 (EphA7, IMAGE ID# 3991628) (Incyte Genomics, CA) and immobilized on streptavidin or avidin coated NPT-IPR plates as described in the Example 7. To promote autophosphorylation in these immobilized and purified proteins, Mn++ ions were added in a 50 μl reaction containing 5 mM MgCl2, 5 mM MnCl2, 100 μM ATP, 25 mM Tris-HCl buffer pH 7.4, 0.05 mM Na3VO4, 0.004% TritonX-100, 2 mM DTT and EDTA-free protease inhibitor (Roche Molecular Biochemicals). This mixture was incubated with shaking at room temperature overnight to allow autophosphorylation. Following this incubation, wells were washed 2 times with TT-buffer and 2 times with water. Following this step, 50 ng Sulfo-TAG labeled anti-phosphotyrosine in buffer containing 25 mM Tris-HCl buffer pH 7.4, 5 mM MgCl2, 0.05 mM Na3VO4, 0.004% TritonX-100, 2 mM DTT and 0.05% IgG in a final volume of 50 μl was added followed by incubation at room temperature for 45 min. The unbound reagents were removed by one time washing with water, and the TAG label was detected in presence of 150 μl IPR assay buffer (0.4 mM Gly—Gly buffer, pH 7.8, 1 mM EDTA, 0.1 M TPA). The ECL signals were measured using an imaging plate reader.
(§2) Proteins were produced using 100 ng of plasmid DNA Mock (Luciferase, Promega) or tyrosine kinases (Fert2 IMAGE ID # 4485050, FGFR1 IMAGE ID # 4037899, Fgfr2 IMAGE ID # 2654352, Src IMAGE ID # 3156400, BMX IMAGE ID # 3919253, LCK IMAGE ID # 4191610, Epha7 IMAGE ID # 3991628, Ephb4 IMAGE ID # 4013934, Tek IMAGE ID # 3482498, HCK IMAGE ID # 4778819, BTK IMAGE ID # 4478463, CSK IMAGE ID # 4398416, SYK IMAGE ID # 3870426, FGR IMAGE ID # 4419973, PTK2B IMAGE ID # 4339456, FRK(IMAGE ID # 4515877, Kit IMAGE ID # 2644960, Fgfr-4 IMAGE ID # 4239139, NTRK3 IMAGE ID # 4181574, Kdr IMAGE ID # 4238984, Incyte Genomics, CA) and immobilized on SA or avidin coated NPT-IPR plates as described in previous examples. The unbound components of the translation reaction (including any endogenous kinases) were removed by 3 washes with TT-buffer (25 mM Tris-HCl buffer pH 7.4 and 0.004% Triton), two five minutes washes with high-salt wash buffer (25 mM Tris-HCl buffer pH 7.4, 0.004% Triton, 1M NaCl and 5 mM DTT) and 3 washes with TT-buffer. […] The mixture was incubated at room temperature for 10 mm before starting the kinase reaction by adding 25 μl of 200 μM ATP in buffer A. This mixture was incubated with intermittent shaking at room temperature for 2 hours to overnight to allow (a) phosphorylation of the pEY substrate and (b) autophosphorylation of the immobilized kinases. Autophosphorylation and phosphorylation of the pEY was measured as described in Examples 7 and 8.
(§3) The ECL signal in control wells produced by tyrosine kinases was compared to the wells containing inhibitor compounds. The signal produced from Mock was negligible.

PTK2B = target: T2, PTK2B (Homo sapiens, UniProt Q14289); experiment: Kinase inhibitor profiling, autophosphorylation; format: biochemical
T2 construct: specificity data for proteins generated from a library of eighteen full-length clones; host or cells: rabbit reticulocyte lysate, TnT coupled in vitro transcription/translation (cell-free)
T2 sequence (Q14289 whole entry): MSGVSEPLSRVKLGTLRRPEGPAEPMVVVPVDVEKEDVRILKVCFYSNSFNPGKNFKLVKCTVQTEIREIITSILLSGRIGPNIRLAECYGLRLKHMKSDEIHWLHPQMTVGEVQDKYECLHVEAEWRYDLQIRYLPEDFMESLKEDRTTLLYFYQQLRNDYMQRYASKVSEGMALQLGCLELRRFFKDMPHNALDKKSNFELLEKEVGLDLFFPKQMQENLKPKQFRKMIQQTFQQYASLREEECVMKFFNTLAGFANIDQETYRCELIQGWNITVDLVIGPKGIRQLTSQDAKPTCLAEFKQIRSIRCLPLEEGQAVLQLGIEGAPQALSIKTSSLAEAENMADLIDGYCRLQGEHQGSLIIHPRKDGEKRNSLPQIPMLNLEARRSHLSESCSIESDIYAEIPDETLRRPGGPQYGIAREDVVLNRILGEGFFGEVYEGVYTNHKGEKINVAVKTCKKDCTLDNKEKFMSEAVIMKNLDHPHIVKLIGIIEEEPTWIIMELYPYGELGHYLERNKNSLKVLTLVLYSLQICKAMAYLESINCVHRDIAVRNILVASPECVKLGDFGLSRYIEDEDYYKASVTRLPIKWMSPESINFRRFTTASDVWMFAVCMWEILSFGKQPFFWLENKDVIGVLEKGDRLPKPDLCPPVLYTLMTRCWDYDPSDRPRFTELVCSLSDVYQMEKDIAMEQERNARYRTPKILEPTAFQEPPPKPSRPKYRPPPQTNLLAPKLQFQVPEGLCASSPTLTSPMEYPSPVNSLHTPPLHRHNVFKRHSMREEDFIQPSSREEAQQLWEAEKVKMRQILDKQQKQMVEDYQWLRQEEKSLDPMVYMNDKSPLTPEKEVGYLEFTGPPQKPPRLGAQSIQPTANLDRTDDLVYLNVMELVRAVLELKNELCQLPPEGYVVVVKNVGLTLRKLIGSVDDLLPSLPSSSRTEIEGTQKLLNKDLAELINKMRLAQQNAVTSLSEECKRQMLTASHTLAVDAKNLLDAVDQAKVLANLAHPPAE
Experimental: as §1, §2, §3

In the case of `COC(=O)c1ccc(NCc2cc(O)ccc2O)cc1` [AG-957], the “Inhibition specificity towards Autophosphorylation at 10X IC50, Ephb4” value (EphB4) was “L (low inhibition (“L”=between 50–75% of the activity remaining))” and the “Inhibition specificity towards Autophosphorylation at 10X IC50, PTK2B” value (PTK2B) was “L (low inhibition (“L”=between 50–75% of the activity remaining))”.

Erbstatin analog was tested, and the “Inhibition specificity towards Autophosphorylation at 10X IC50, Ephb4” value (EphB4) was “L (low inhibition (“L”=between 50–75% of the activity remaining))” and the “Inhibition specificity towards Autophosphorylation at 10X IC50, PTK2B” value (PTK2B) was “L (low inhibition (“L”=between 50–75% of the activity remaining))”.

`Cc1cc2ncc(-c3ccc(O)c(O)c3)nc2cc1C` [AG-1433] was tested, and the “Inhibition specificity towards Autophosphorylation at 10X IC50, Ephb4” value (EphB4) was “H (high inhibition (“H”=less than 25% of the activity remaining))” and the “Inhibition specificity towards Autophosphorylation at 10X IC50, PTK2B” value (PTK2B) was “H (high inhibition (“H”=less than 25% of the activity remaining))”.

`COc1cc2ncnc(Nc3ccc(Cl)cc3F)c2cc1OC` [VEGFR inhibitor] was tested, and the “Inhibition specificity towards Autophosphorylation at 10X IC50, Ephb4” value (EphB4) was “L (low inhibition (“L”=between 50–75% of the activity remaining))”.

With `COc1c(C=O)c(O)cc2c1C(=O)c1ccccc1C2=O` [Damnacanthal] the “Inhibition specificity towards Autophosphorylation at 10X IC50, Ephb4” value (EphB4) was “H (high inhibition (“H”=less than 25% of the activity remaining))” and the “Inhibition specificity towards Autophosphorylation at 10X IC50, PTK2B” value (PTK2B) was “M (medium inhibition (“M”=between 25 to 50% of the activity remaining))”.
